# Counter-ions that a name gives are not always drawn.
# How the values were obtained:
# [1] = target: T1, AII-induced contractions of isolated rabbit aorta (Oryctolagus cuniculus, UniProt P34976); test: Test B: in vitro antagonism of AII-induced contractions of isolated rabbit aorta; assay type: cell-based; conditions: 37° C., read-out: average pA2 (converted)
# T1 construct: isolated rabbit aorta, maintained in a physiological salt solution; from tissue; host or cells: isolated rabbit aorta
# T1 sequence (P34976 1-359): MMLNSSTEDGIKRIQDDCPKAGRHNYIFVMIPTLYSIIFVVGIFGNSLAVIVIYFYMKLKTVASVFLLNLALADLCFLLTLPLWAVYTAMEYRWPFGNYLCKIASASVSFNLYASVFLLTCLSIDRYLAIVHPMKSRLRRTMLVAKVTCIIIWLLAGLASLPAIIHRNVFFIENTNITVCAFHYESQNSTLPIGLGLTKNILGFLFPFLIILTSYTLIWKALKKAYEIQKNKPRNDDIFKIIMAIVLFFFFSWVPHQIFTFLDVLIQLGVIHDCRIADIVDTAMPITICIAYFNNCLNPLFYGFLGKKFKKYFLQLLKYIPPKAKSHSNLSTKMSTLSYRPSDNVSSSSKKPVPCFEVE
# Method: The antagonism of one or more of the physiological actions of AII and, in particular, the antagonism of the interaction of AII with the receptors which mediate its effects on a target tissue, may be assessed using one or more of the following, routine laboratory procedures: This in vitro test involves the measurement of the antagonistic effects of the test compound against […] contractions of isolated rabbit aorta, maintained in a physiological salt solution at 37° C. In order to ensure that the effect of the compound is specific to antagonism of AII, the effect of the test compound on noradrenaline-induced contractions may also be determined in the same preparation.
# [2] = test system: angiotensin II-induced pressor responses; test: Test C: in vivo antagonism of angiotensin II-induced pressor responses in terminally-anaesthetised or conscious rats; conditions: Rattus norvegicus, iv, i.v. administration
# Excerpt: The antagonism of one or more of the physiological actions of AII and, in particular, the antagonism of the interaction of AII with the receptors which mediate its effects on a target tissue, may be assessed using one or more of the following, routine laboratory procedures: This in vivo test involves using terminally-anaesthetised or conscious rats in which an arterial catheter has been implanted under anaesthesia for the measurement of changes in blood pressure. The AII antagonistic effects of the test compound following oral or parenteral administration, are assessed against angiotensin II-induced pressor responses. To ensure that the effect is specific, the effect of the test compound on vasopressin-induced pressor responses may also be determined in the same preparation.
SMILES,Kb [1] [nM],ED50 [2] [mg/kg]
Cc1cc(OCc2ccc(-c3ccccc3-c3nnn[nH]3)cc2)c2ccccc2n1.Cl [2-methyl-4-[(2'-(1H-tetrazol-5-yl)biphenyl-4-yl)methoxy]quinoline hydrochloride],1.12,0.5
"Cc1cc(OCc2ccc(-c3ccccc3-c3nnn[nH]3)cc2)c2c(n1)CCCC2 [2-methyl-5,6,7,8-tetrahydro-4-[(2'-(1H-tetrazol-5-yl)methoxy]quinoline hydrochloride]",,0.28

# From patent US5245035A, “Heterocyclic boron compounds as intermediates for angiotensin II antagonists” (Imperial Chemical Industries PLC, priority 1991, dated 1993)
